Measurements as given in patent US20100183669A1, “Mannose immunogens for HIV-1” (University of Oxford, priority 2005, published 2010).

Tests used:
[1] = tested on: ER- and Golgi-resident class I α-mannosidases; conditions: relative to DMJ; cited from earlier work
2G12 [2] = experiment: 2G12 binding ELISA of self glycoproteins CD48 and RPTPmu expressed in HEK293T cells with kifunensine; conditions: glycoproteins expressed in HEK293T cells with 5 μM kifunensine, FIG. 4
Method: The aim of this study is to generate ‘self’ glycoproteins bearing oligomannose glycans which bind a 2G12 antibody and consequently display antigenic cross-reactivity with the HIV gp120. Two target glycoproteins, CD48 and Receptor Protein Tyrosine Phosphates mu (RPTPmu) were expressed in HEK293T cells in the presence of the mannosidase inhibitor kifunensine at 5 μM concentration. To verify that the mannosidase inhibitor was effective in producing glycoprotein containing oligomannose glycans, the glycans were released by digestion with protein N-glycanase F (PNGase F) and were then analysed by high-performance liquid chromatography (HPLC) and matrix assisted laser desorption/ionisation mass spectrometry (MALDI-MS).
The resulting glycoproteins containing oligomannose-type N-linked glycans were tested for 2G12 binding by ELISA (FIG. 4). Particularly, 15.6 μg of CD48, 2 μg, 1 μg and 0.4 μg of RPTPmu were plated and 1 μg of non-kifunensine treated IgG was plated as a negative control.

monoclonal antibody 2G12 = experiment: 2G12 sandwich ELISA of gp120 from CHO cells grown with or without kifunensine; format: binding; conditions: for binding to the monoclonal antibody 2G12 in ELISA: gp120 produced in CHO cells in the presence of kifunensine, compared with absence
Method: To investigate the role of mannosidase inhibition, by kifunensine, on the formation of the 2G12 epitope, Chinese Hamster Ovary (CHO) cells, transfected with EE6HCMV gp120GS, secreting recombinant HIV-IIIB gp120, were cultured in CB2 DMEM Base culture medium supplemented with foetal calf serum (10%), penicillin (50 U/ml) and streptomycin (50 ^1g/ml). All reagents were obtained from Gibco Ltd, Uxbridge, UK. High expression of gp120 was maintained by the addition of methionine sulphoximine (200 nM). Cells were grown in the presence and absence kifunensine (see FIG. 1A, 1B).
Glycoproteins were immobilized on plastic protein-binding plates. For the first experiment (FIG. 1A) 2G12 (5 ug/ml) was coated onto plate, left overnight at 4° C. Plates were then blocked with Bovine Serum albumin (3% w/v) for one hour. Subsequently, supernatant from gp120IIIB expressing CHO cells (with or without kifunensine) was added for one hour, at room temperature. Plates were then washed 3 times in PBS. 2G12 (titration from 10 yg/ml) was then added. After washing 2g12 binding was determined by phosphatase-conjugated anti-IgG secondary antibody, a final wash step and then phosphatase substrate measurement (p-nitrophenylphosphate, absorbance at 405 nm).
(§1) BSA (x) was used in these experiments as a negative control.

2G12 [3] = experiment: Double antibody (b12/2G12) ELISA of gp120 captured with anti-gp120 antibody D7324; format: binding; conditions: gp120 produced with 5 μM kifunensine compared with double antibody ELISA of untreated gp120, FIG. 1 panel B
Excerpt: Binding of gp120, and measurement of b12/2G12 was again determined by phosphatase-conjugated anti-IgG secondary antibody.
as §1

O=C1N[C@@H]2[C@@H](O)[C@@H](O)[C@H](O)[C@@H](CO)N2C1=O [kifunensine]
concentration to effect mannosidase inhibition, lower than DMJ [1]: 1000 fold

CD48: self glycoprotein expressed in HEK293T cells in the presence of 5 μM kifunensine, bearing oligomannose glycans
2G12 binding by ELISA (2G12 [2]): can bind to 2G12

RPTPmu: self glycoprotein expressed in HEK293T cells in the presence of 5 μM kifunensine, bearing oligomannose glycans
2G12 binding by ELISA (2G12 [2]): can bind to 2G12

kifunensine treated gp120: HIV-1IIIB gp120 glycoprotein produced in a CHO stable cell line in the presence of kifunensine
number of 2G12 molecules able to bind to a single gp120 molecule (monoclonal antibody 2G12; gp120 expressed in the presence of kifunensine): at least two
binding to the monoclonal antibody 2G12 in ELISA (monoclonal antibody 2G12; expressed in the presence of kifunensine): dramatically enhanced
binding to the monoclonal antibody 2G12 in ELISA (monoclonal antibody 2G12; produced in the presence of kifunensine): higher binding
additional 2G12 binding sites on each molecule of gp120 (monoclonal antibody 2G12; gp120 produced in the presence of kifunensine, two 2G12 ELISA binding assays): at least one additional 2G12 binding site
proportion of gp120 molecules able to simultaneously bind two or more 2G12 antibody molecules (monoclonal antibody 2G12; sandwich ELISA, 0-5 μM kifunensine, FIG. 1 panel A): a higher proportion
distinct epitopes for 2G12 (2G12 [3]): two distinct epitopes
